Experimental data from patent US20220275376A1, “TARGETING SLC38A2 IN PANCREATIC CANCER” (New York University, priority 2019, published 2022).

Key:
HY19636 cells = experiment: Orthotopic syngeneic allograft, HY19636 cells; assay type: in vivo, C57BL/6J mice; conditions: HY19636 (2.5×10^4) pooled SLC38A2-deficient cells vs sgTom, 27 days
Experimental: (§1) (A) SLC38A2 staining in pancreatic tumors derived from the KPC (LSL-Kras^G12D; Trp53^lox/+; p48Cre+) mouse model and normal murine pancreas. Representative fields from KPC (4×, left) and normal pancreas (10×, right) are depicted with scale bars. Arrows indicate instances of punctate SLC38A2 in normal pancreas (right). (B) Representative live cell images of HY19636 (left) and mPSC #1 (right) cells transiently transfected with 3 μg of SLC38A2-GFP (green) overnight and stained with MitoTracker (red) to visualize individual cells; scale bars are indicated in figures. […] Subcutaneous tumors were monitored bi-weekly by caliper measurement and considered formed if length and width were measured to be ≥1 mm each. […] Orthotopic xenografts were monitored by 3-D ultrasound bi-weekly and considered tumors if volume ≥1 mm^3. […] HY19636 (2.5×10^4) or PANC1 (5×10^5) control (sgTom) or pooled SLC38A2-deficient (sgSLC38A2 #1, #3) cells were injected orthotopically, and tumors were weighed following resection after 27 days (HY19636) or 63 days (PANC1). Error bars depict s.e.m. of tumors resected from 9-10 mice.
For orthotopic xenograft experiments, PANC1 cells were infected with lentiviral shRNAs or sgRNAs targeting SLC38A2 or GFP/Tomato as a control and selected with puromycin (2 μg/mL) for three days. […]

PANC1 cells [1] = experiment: Orthotopic xenograft, PANC1 cells; assay type: in vivo, NCr nude mice; conditions: for tumor burden (tumor weight after resection): PANC1 (5×10^5) pooled SLC38A2-deficient cells vs sgTom, 63 days; for tumor initiation: SLC38A2 knockdown PANC1 cells (5×10^5), orthotopic, vs shGFP, 3-D ultrasound, tumor if volume ≥1 mm^3
Experimental: as §1
For orthotopic xenograft experiments, PANC1 cells were infected with lentiviral shRNAs or sgRNAs targeting SLC38A2 or GFP/Tomato as a control and selected with puromycin (2 μg/mL) for three days. For syngeneic orthotopic allograft studies, HY19636 cells were infected with lentiviral sgRNAs targeting SLC38A2 or Tomato and selected with puromycin (2 μg/mL) for three days. 500,000 PANC1 cells or […] HY19636 cells were resuspended in 10 μl HBSS and 10 μl growth factor-reduced matrigel (Corning 356231) per injection and kept on ice. Female 7-8 week old NCr nude or C57BL/6J mice were used for xenograft and allograft experiments, respectively. An incision was made near the spleen which was gently removed from the peritoneal space to expose the pancreas. The 20 μL cell:matrigel suspension was slowly injected into the tail of the exposed pancreas using either a Hamilton or insulin syringe (BD 324702). After injection, the needle was held in place by tweezers briefly to allow the matrigel to polymerize before gently removing the needle and re-introducing the spleen and pancreas into the animal. The peritoneum was sutured and the wound was closed with surgical staples. Buprenorphine was administered by intraperitoneal injection and immediately after surgery and every 12 hours for 48 hours.
After injection, all mice were allowed to recover from surgery for five days before screening for tumor initiation by non-invasive 3-D ultrasound imaging (VisualSonics Vevo 770) twice a week under anesthesia using 1-3% isoflurane via nose cone. Tumor initiation was considered if volume ≥1 mm^3 and sustained or increased in volume over the course of the experiment. […]

PANC1 cells [2] = experiment: Subcutaneous xenograft tumor initiation, PANC1 cells co-injected with hPSC #1 cells; assay type: in vivo, NCr nude mice; conditions: SLC38A2 knockdown PANC1 cells (2×10^5) co-injected with hPSC #1 cells (1×10^6), vs shGFP; tumor if length and width ≥1 mm
Experimental: (A) SLC38A2 staining in pancreatic tumors derived from the KPC (LSL-Kras^G12D; Trp53^lox/+; p48Cre+) mouse model and normal murine pancreas. Representative fields from KPC (4×, left) and normal pancreas (10×, right) are depicted with scale bars. Arrows indicate instances of punctate SLC38A2 in normal pancreas (right). (B) Representative live cell images of HY19636 (left) and mPSC #1 (right) cells transiently transfected with 3 μg of SLC38A2-GFP (green) overnight and stained with MitoTracker (red) to visualize individual cells; scale bars are indicated in figures. […] Subcutaneous tumors were monitored bi-weekly by caliper measurement and considered formed if length and width were measured to be ≥1 mm each. […] Orthotopic xenografts were monitored by 3-D ultrasound bi-weekly and considered tumors if volume ≥1 mm^3. […]
For subcutaneous co-injection tumor initiation studies, PANC1 cells were infected with lentiviral shRNAs targeting SLC38A2 or GFP as a control shRNA and selected with puromycin (2 μg/mL) for three days. […] Tumor initiation was monitored two to three times per week by caliper measurement. Tumor initiation was considered if length and width were measured to be ≥1 mm each.

PANC1 cells [3] = experiment: Intracellular alanine levels in drug-treated PANC1 cells (GC-MS); assay type: cell-based, human; conditions: 24 hours, PXT 10 μM, DPM 10, racemic FLX 10 or 25 μM, vs vehicle (DMSO)
Experimental: (A) Western blot depicting SLC38A2 levels in PANC1 cells engineered to express SLC38A2 under control of doxycycline. Withdrawal of doxycycline results in a significant depletion in SLC38A2 levels after 24 hours.
Fluvoxamine (FVX), fluoxetine (FLX), paroxetine (PXT), sertindole (SND), and blonanserin (BNS) were acquired from Cayman Chemicals. Desipramine (DPM), α-(Methylamino) isobutyric acid (MeAIB), and L-alanine were acquired from Sigma. Stocks were prepared at 10 mM or 7.5 mM (BNS) in DMSO. Cells were treated with vehicle (DMSO) or varying concentrations of drug for indicated time. Conditioned media was collected and centrifuged at 1,000×g to remove cell debris followed by extraction of metabolites. For metabolite extraction, cells were first washed with ice cold 0.9% NaCl to remove media contamination followed by addition of 500 μL methanol (−20° C.) and 200 μL HPLC grade water (4° C.). Cells were scraped and pipeted into glass vials containing 500 μL chloroform (4° C.) and vortexed at 4° C. for 10-15 minutes. Aqueous and inorganic layers were separated by cold centrifugation for 15 minutes. 300 μL of the aqueous layer containing polar metabolites was transferred to sample vials (Agilent 5190-2243) and evaporated using a SpeedVac (Savant Thermo SPD111V). Dried samples were stored at −20° C. and re-evaporated for 5-10 minutes prior to derivatization and GC-MS analysis.

SLC38A2 = biological target: T1, SLC38A2 (Homo sapiens, UniProt Q96QD8); experiment: SLC38A2 activity measured by MeAIB uptake in HY15549 dox-inducible SNAT2 cells; assay type: cell-based; conditions: for inhibition of MeAIB uptake (intracellular MeAIB levels): 20 μm compound, MeAIB 0.3 mM, 1 hour, vs vehicle (PBS), HY15549 cells expressing dox-inducible SLC38A2/SNAT2
T1 construct: expressed in transfected cells; host or cells: HY15549 cells with dox-inducible SNAT2
T1 sequence (Q96QD8 1-506): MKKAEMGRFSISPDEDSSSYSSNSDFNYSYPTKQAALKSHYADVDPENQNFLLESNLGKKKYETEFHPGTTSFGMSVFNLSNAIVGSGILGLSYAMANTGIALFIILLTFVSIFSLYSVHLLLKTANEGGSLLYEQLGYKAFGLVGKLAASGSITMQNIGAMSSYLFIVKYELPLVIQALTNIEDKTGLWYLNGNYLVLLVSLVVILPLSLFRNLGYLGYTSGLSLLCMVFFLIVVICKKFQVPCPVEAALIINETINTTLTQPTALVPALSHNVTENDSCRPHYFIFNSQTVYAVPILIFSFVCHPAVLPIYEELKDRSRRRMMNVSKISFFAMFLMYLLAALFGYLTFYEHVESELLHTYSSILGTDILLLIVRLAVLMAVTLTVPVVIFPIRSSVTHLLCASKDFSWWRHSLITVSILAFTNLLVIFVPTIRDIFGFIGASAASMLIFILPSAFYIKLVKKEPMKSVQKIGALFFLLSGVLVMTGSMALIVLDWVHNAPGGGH
Experimental: (A) Schematic depicting SLC38A2-dependent update of alanine structural analog, methyl α-aminoisobutyrate (MeAIB). […] (B) Total ion chromatogram (TIC) of HY15549 dox-inducible SNAT2 cells treated with 1 mM MeAIB for 24 hours compared to vehicle (PBS). […] HY15549 dox-inducible SNAT2 cells were cultured with a concentration gradient of MeAIB for 15 minutes (gray circles) or 60 minutes (black squares). (D) Western blot depicting SLC38A2 expression relative to doxycycline after 24 hours culture in HY15549 dox-inducible SNAT2 cells. (E) Intracellular MeAIB levels in HY15549 dox-inducible cells cultured with dox (+SNAT2, left bar) and without dox (KO, right bar) for 24 hours with 1 mM MeAIB. (F) Intracellular MeAIB levels in HY15549 dox-inducible cells cultured with vehicle, paroxetine (PXT, 20 μM), or sertraline (SRT, 20 μm) for 24 hours with 300 μM MeAIB.

In the case of “sgSLC38A2 #1: CRISPR sgRNA targeting SLC38A2, TAATCTGAGCAATGCGATTG (SEQ ID NO:7) (expressed or natural sequence)”, the “tumor burden (tumor weight after resection)” value (“tumor burden” for short) (HY19636 cells) is reported as “significantly reduced tumor burden” and the “tumor burden” value (PANC1 cells [1]) is reported as “significantly reduced tumor burden”.

With “shSLC38A2 #4: lentiviral shRNA targeting SLC38A2, GAATACCAAGAGTTGTTTCTA (SEQ ID NO:3), TRCN0000020241” the tumor initiation (PANC1 cells [2]) was “significantly suppressed” and the tumor initiation (PANC1 cells [1]) was “significantly suppressed”.

“shSLC38A2 #1: lentiviral shRNA targeting SLC38A2, GGAGAAGATACTGTGGCAA (SEQ ID NO:2), TRCN0000020243” was tested, and the tumor initiation (PANC1 cells [2]) was “significantly suppressed” and the tumor initiation (PANC1 cells [1]) was “significantly suppressed”.

“sgSLC38A2 #3: CRISPR sgRNA targeting SLC38A2, TCTTATGCCATGGCTAATAC (SEQ ID NO:8) (expressed or natural sequence)” was tested, and the “tumor burden” value (HY19636 cells) was “significantly reduced tumor burden” and the “tumor burden” value (PANC1 cells [1]) was “significantly reduced tumor burden”.

In the case of `CNCCCN1c2ccccc2CCc2ccccc21` [desipramine], the “reduction of intracellular alanine levels” value (shortened to “reduction”) (PANC1 cells [3]) is reported as roughly 50%.

With `CNCCC(Oc1ccc(C(F)(F)F)cc1)c1ccccc1` (racemic) [fluoxetine] the “reduction” value (PANC1 cells [3]) was roughly 50%.

`CNC(C)(C)C(=O)O` [MeAIB, α-(Methylamino) isobutyric acid] gave a Km (SLC38A2; HY15549 dox-inducible SNAT2 cells, MeAIB concentration gradient, 15 or 60 minutes, read-out: Km of MeAIB uptake (Michaelis-Menten kinetics)) of roughly 3.5 mM.

For `CN[C@H]1CC[C@@H](c2ccc(Cl)c(Cl)c2)c2ccccc21` [sertraline], the “inhibition of MeAIB uptake (intracellular MeAIB levels)” value (SLC38A2) was “inhibited”.

With `Fc1ccc([C@@H]2CCNC[C@H]2COc2ccc3c(c2)OCO3)cc1` [paroxetine] the “reduction” value (PANC1 cells [3]) was roughly 50% and the “inhibition of MeAIB uptake (intracellular MeAIB levels)” value (SLC38A2) was “inhibited”.
